Test results reported in patent publication US12497394B2, “Fused-cyclic pyrazolone formamide compound and preparation method therefor, pharmaceutical composition and use thereof” (SHANGHAI INSTITUTE OF MATERIA MEDICA, CHINESE ACADEMY OF …, priority 2018, dated 2025).
“And” between values parts separate entries of the source, which are not always exact repeats. Identical values can stand only once.

Legend:
[1] = target: receptor tyrosine kinase c-Met (Homo sapiens, UniProt P08581); assay: In vitro c-Met kinase inhibitory activity; assay type: biochemical; conditions: two values per compound; for inhibition at 0.001 µM / inhibition at 0.01 µM / inhibition at 0.1 µM: read-out: c-Met Inhibitory rate (%)
Chain of receptor tyrosine kinase c-Met (P08581 25-1390): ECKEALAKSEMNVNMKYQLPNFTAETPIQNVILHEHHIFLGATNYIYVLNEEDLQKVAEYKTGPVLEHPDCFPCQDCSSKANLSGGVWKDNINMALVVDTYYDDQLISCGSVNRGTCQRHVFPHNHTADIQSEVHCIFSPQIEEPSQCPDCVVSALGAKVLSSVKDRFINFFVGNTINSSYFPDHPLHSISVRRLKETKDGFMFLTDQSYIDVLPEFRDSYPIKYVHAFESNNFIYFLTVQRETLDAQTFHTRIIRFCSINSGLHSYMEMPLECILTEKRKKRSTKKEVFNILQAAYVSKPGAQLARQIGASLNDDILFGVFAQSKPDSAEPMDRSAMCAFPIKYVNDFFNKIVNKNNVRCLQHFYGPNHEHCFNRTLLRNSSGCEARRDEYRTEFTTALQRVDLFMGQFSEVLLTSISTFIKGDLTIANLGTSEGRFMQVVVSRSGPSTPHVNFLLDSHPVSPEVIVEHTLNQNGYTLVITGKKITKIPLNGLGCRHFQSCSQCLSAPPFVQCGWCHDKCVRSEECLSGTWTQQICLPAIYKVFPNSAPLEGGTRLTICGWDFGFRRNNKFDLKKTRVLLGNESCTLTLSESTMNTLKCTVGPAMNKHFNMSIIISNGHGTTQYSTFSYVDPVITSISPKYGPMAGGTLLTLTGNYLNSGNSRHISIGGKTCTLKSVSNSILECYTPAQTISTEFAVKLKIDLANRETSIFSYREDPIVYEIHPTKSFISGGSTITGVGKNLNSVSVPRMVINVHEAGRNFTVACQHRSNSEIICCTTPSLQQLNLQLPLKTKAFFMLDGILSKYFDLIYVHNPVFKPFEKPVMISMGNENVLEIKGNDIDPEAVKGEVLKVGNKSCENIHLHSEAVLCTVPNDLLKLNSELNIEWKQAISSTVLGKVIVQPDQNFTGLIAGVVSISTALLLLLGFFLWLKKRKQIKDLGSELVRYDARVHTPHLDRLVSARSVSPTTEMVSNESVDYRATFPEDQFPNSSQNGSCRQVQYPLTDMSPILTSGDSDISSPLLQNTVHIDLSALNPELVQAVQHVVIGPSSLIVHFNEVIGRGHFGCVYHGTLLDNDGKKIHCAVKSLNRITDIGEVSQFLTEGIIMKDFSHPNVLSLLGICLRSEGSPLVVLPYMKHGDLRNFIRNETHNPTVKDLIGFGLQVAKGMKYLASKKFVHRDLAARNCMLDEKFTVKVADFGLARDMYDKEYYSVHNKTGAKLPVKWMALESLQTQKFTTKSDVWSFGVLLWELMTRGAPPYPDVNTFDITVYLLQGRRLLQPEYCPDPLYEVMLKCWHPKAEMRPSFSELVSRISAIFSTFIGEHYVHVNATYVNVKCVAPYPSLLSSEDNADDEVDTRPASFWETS
Source text: Experimental Example 3: Study of In Vitro c-Met Kinase Inhibitory Activity
Since the screening results of 369 kinase profiles of compound DC621044 has shown that the compound has a certain inhibitory activity on c-Met. We further screened some compounds for their inhibitory activity on c-Met kinase.

[2] = test system: BaF3/TEL-AXL cells; assay: Proliferation of BaF3/TEL-AXL cells; assay type: cell-based; conditions: two values per compound; for inhibition at 0.01 µM / inhibition at 0.1 µM / inhibition at 0.001 µM: BaF3/TEL-AXL, read-out: BaF3/TEL-AXL proliferation Inhibitory rate (%)
Source text: Experimental Example 4: Effect of the Compound on the Proliferation Effect of BaF3/TEL-AXL Cells
Based on the above-mentioned enzyme activity research results, we further explored the effect of the compound on cell proliferation mediated by receptor tyrosine kinase AXL.

c-Met Inhibitory rate (%) ([1]; 1 nM, 0.001 µM)	inhibition at 0.001 µM ([1]; 1 nM)	Structure (SMILES)	c-Met Inhibitory rate (%) ([1]; 10 nM, 0.01 µM)	inhibition at 0.01 µM ([1]; 10 nM)	c-Met Inhibitory rate (%) ([1]; 100 nM, 0.1 µM)	inhibition at 0.1 µM ([1]; 100 nM)	BaF3/TEL-AXL proliferation Inhibitory rate (%) ([2]; 10 nM, 0.01 µM)	BaF3/TEL-AXL proliferation Inhibitory rate (%) ([2]; 100 nM, 0.1 µM)	inhibition at 0.01 µM ([2]; 10 nM)	inhibition at 0.1 µM ([2]; 100 nM)	BaF3/TEL-AXL proliferation Inhibitory rate (%) ([2]; 1 nM, 0.001 µM)	inhibition at 0.001 µM ([2]; 1 nM)
19.6%	27.2%	COc1cc2ncnc(Oc3ccc(NC(=O)c4c5n(n(-c6ccc(F)cc6)c4=O)CCCC5)cc3C(F)(F)F)c2cc1OC [DC621101, N-(4-((6,7-dimethoxyquinazoline-4-yl)oxy)-3-trifluoromethylphenyl)-1-(4-fluorophenyl)-2-oxo-1,2,4,5,6,7-hexahydropyrazolo[1,5-a]pyridine-3-formamide]	60.9%	75%	91.0%	96.5%						
		COc1cc2ncnc(Oc3ccc(NC(=O)c4c5n(n(-c6cc(F)ccc6F)c4=O)CCCC5)c(F)c3)c2cc1OC [DC621053, 1-(2,5-difluorophenyl)-N-(4-((6,7-dimethoxyquinazoline-4-yl)oxy)-2-fluorophenyl)-2-oxo-1,2,4,5,6,7-hexahydropyrazolo[1,5-a]pyridine-3-formamide]	68.5%	50.9%	98.7%	92.8%	71.6%	84.2%	67.5%	83.8%	56.7%	65.3%
43.0%	32.7%	O=C(Nc1ccc(Oc2ncnc3[nH]cc(-c4ccccc4)c23)c(F)c1)c1c2n(n(-c3ccccc3)c1=O)CCCC2 [DC621052, N-(3-fluoro-4-((5-phenyl-7H-pyrrolo[2,3-d]pyrimidin-4-yl)oxy)phenyl)-2-oxo-1-phenyl-1,2,4,5,6,7-hexahydropyrazolo[1,5-a]pyridine-3-formamide]	55.1% and 85.0%		94.1%	84.5%						
17.2%	25.6%	COCCOc1cc2ncnc(Oc3ccc(NC(=O)c4c5n(n(-c6ccc(F)cc6)c4=O)CCCC5)cc3C(F)(F)F)c2cc1OCCOC [DC621102, N-(4-((6,7-bis(2-methoxyethoxy)quinazolin-4-yl)oxy)-3-trifluoromethylphenyl)-1-(4-fluorophenyl)-2-oxo-1,2,4,5,6,7-hexahydropyrazolo[1,5-a]pyridine-3-formamide]	77.2% and 53.4%		93.9%	99.1%						
34.8% and 63.9%		COc1cc2ncnc(Oc3ccc(NC(=O)c4c5n(n(-c6ccccc6F)c4=O)CCCC5)cc3F)c2cc1OC [DC621034, N-(4-((6,7-dimethoxyquinazoline-4-yl)oxy)-3-fluorophenyl)-1-(2-fluorophenyl)-2-oxo-1,2,4,5,6,7-hexahydropyrazolo[1,5-a]pyridine-3-formamide]	66.5%	48.3%	97.0%	97.5%						
30.8% and 53.9%		O=C(Nc1ccc(Oc2ncnc3[nH]cc(-c4ccccc4)c23)c(F)c1)c1c2n(n(-c3cc(F)ccc3F)c1=O)CCCC2 [DC621055, 1-(2,5-difluorophenyl)-N-(3-fluoro-4-((5-phenyl-7H-pyrrolo[2,3-d]pyrimidin-4-yl)oxy)phenyl)-2-oxo-1,2,4,5,6,7-hexahydropyrazolo[1,5-a]pyridine-3-formamide]	74.2%	68.2%	100%	96%						
		O=C(Nc1ccc(Oc2ncnc3[nH]cc(-c4ccccc4)c23)c(F)c1)c1c2n(n(-c3ccccc3F)c1=O)CCCC2 [DC621058, N-(3-fluoro-4-((5-phenyl-7H-pyrrolo[2,3-d]pyrimidin-4-yl)oxy)phenyl)-1-(2-fluorophenyl)-2-oxo-1,2,4,5,6,7-hexahydropyrazolo[1,5-a]pyridine-3-formamide]	45.1%	54.6%	83.6%	89.2%						
		COc1cc2ncnc(Oc3ccc(NC(=O)c4c5n(n(-c6ccc(F)cc6)c4=O)CCCC5)c(F)c3)c2cc1OC [DC621059, N-(4-((6,7-dimethoxyquinazoline-4-yl)oxy)-2-fluorophenyl)-1-(4-fluorophenyl)-2-oxo-1,2,4,5,6,7-hexahydropyrazolo[1,5-a]pyridine-3-formamide]					82.7%	84.2%	71.4%	83.7%	78.3%	68.4%
		COc1cc2ncnc(Oc3ccc(NC(=O)c4c5n(n(-c6ccccc6)c4=O)CCCC5)cc3F)c2cc1OC [DC621011, N-(4-((6,7-dimethoxyquinazoline-4-yl)oxy)-3-fluorophenyl)-2-oxo-1-phenyl-1,2,4,5,6,7-hexahydropyrazolo[1,5-a]pyridine-3-formamide]	89.2%	74.4%	100%	86.6%	56.1%	83.9%	60.5%	84.8%		
		COc1cc2ncnc(Oc3ccc(NC(=O)c4c5n(n(-c6ccccc6F)c4=O)CCCC5)c(F)c3)c2cc1OC [DC621056, N-(4-((6,7-dimethoxyquinazoline-4-yl)oxy)-2-fluorophenyl)-1-(2-fluorophenyl)-2-oxo-1,2,4,5,6,7-hexahydropyrazolo[1,5-a]pyridine-3-formamide]	72.8% and 49.8%		94.1%	92%	74.1%	84.9%	70%	86.6%	58.8%	45.3%

Structure (SMILES)	c-Met Inhibitory rate (%) ([1]; 1 nM, 0.001 µM)	inhibition at 0.001 µM ([1]; 1 nM)	c-Met Inhibitory rate (%) ([1]; 10 nM, 0.01 µM)	inhibition at 0.01 µM ([1]; 10 nM)	c-Met Inhibitory rate (%) ([1]; 100 nM, 0.1 µM)	inhibition at 0.1 µM ([1]; 100 nM)	BaF3/TEL-AXL proliferation Inhibitory rate (%) ([2]; 10 nM, 0.01 µM)	BaF3/TEL-AXL proliferation Inhibitory rate (%) ([2]; 100 nM, 0.1 µM)	inhibition at 0.01 µM ([2]; 10 nM)	inhibition at 0.1 µM ([2]; 100 nM)	BaF3/TEL-AXL proliferation Inhibitory rate (%) ([2]; 1 nM, 0.001 µM)	inhibition at 0.001 µM ([2]; 1 nM)
COc1cc2nccc(Oc3ccc(NC(=O)c4c5n(n(-c6ccccc6)c4=O)CCCC5)cc3F)c2cc1OC [DC621001, N-(4-((6,7-dimethoxyquinoline-4-yl)oxy)-3-fluorophenyl)-2-oxo-1-phenyl-1,2,4,5,6,7-hexahydropyrazolo[1,5-a]pyridine-3-formamide]	51.7% and 72.4%		97.6%	84.7%	100%	92%	59.1%	71.3%	54.9%	82%		
COc1cc2ncnc(Oc3ccc(NC(=O)c4c5n(n(-c6cc(F)ccc6F)c4=O)CCCC5)cc3)c2cc1OC [DC621022, 1-(2,5-difluorophenyl)-N-(4-((6,7-dimethoxyquinazoline-4-yl)oxy)phenyl)-2-oxo-1,2,4,5,6,7-hexahydropyrazolo[1,5-a]pyridine-3-formamide]	51.1%	35.4%	57.0%	41.7%	96.5%	81.9%	58.0%	80.9%	71.8%	83.2%	48.3%	66.3%
COc1cc2ncnc(Oc3ccc(NC(=O)c4c5n(n(-c6cc(F)ccc6F)c4=O)CCCC5)cc3F)c2cc1OC [DC621023, 1-(2,5-difluorophenyl)-N-(4-((6,7-dimethoxyquinazoline-4-yl)oxy)-3-fluorophenyl)-2-oxo-1,2,4,5,6,7-hexahydropyrazolo[1,5-a]pyridine-3-formamide]	60.9%	58.9%	92.3%	80.9%	100%	99.2%	67.6%	65.0%	66.5%	76.8%	62.2% and 41.4%	
